The NIST ThermoML archive (doi:10.1021/je200721d)

Assay: xn = mol fraction of the nth substance listed
Details: Liquid, Vibrating tube method

CCCCCCCCCC [decane] + CCCCCC
Details | mass density [kg/m3]
343.06 K, 22000 kPa, x2 = 0.7524 | 665.93
343.06 K, 23000 kPa, x2 = 0.2185 | 702.17
343.06 K, 23000 kPa, x2 = 0.7524 | 666.87
343.06 K, 24000 kPa, x2 = 0.2185 | 702.97
343.06 K, 24000 kPa, x2 = 0.7524 | 667.79
343.06 K, 25000 kPa, x2 = 0.2185 | 703.79
343.06 K, 25000 kPa, x2 = 0.7524 | 668.69
343.08 K, 1000 kPa, x2 = 0.4968 | 663.07
343.08 K, 2000 kPa, x2 = 0.4968 | 664.35
343.08 K, 3000 kPa, x2 = 0.4968 | 665.55
343.08 K, 4000 kPa, x2 = 0.4968 | 666.8
343.08 K, 5000 kPa, x2 = 0.4968 | 667.97
343.08 K, 6000 kPa, x2 = 0.4968 | 669.14
343.08 K, 7000 kPa, x2 = 0.4968 | 670.28
343.08 K, 8000 kPa, x2 = 0.4968 | 671.4
343.08 K, 9000 kPa, x2 = 0.4968 | 672.48
343.08 K, 10000 kPa, x2 = 0.4968 | 673.55
343.08 K, 11000 kPa, x2 = 0.4968 | 674.64
343.08 K, 12000 kPa, x2 = 0.4968 | 675.64
343.08 K, 13000 kPa, x2 = 0.4968 | 676.63
343.08 K, 14000 kPa, x2 = 0.4968 | 677.63
343.08 K, 15000 kPa, x2 = 0.4968 | 678.63
343.08 K, 16000 kPa, x2 = 0.4968 | 679.61
343.08 K, 17000 kPa, x2 = 0.4968 | 680.59
343.08 K, 18000 kPa, x2 = 0.4968 | 681.52
343.08 K, 19000 kPa, x2 = 0.4968 | 682.46
343.08 K, 20000 kPa, x2 = 0.4968 | 683.4
343.08 K, 21000 kPa, x2 = 0.4968 | 684.32
343.08 K, 22000 kPa, x2 = 0.4968 | 685.22
343.08 K, 23000 kPa, x2 = 0.4968 | 686.1
343.08 K, 24000 kPa, x2 = 0.4968 | 686.98
343.08 K, 25000 kPa, x2 = 0.4968 | 687.83
352.75 K, 1000 kPa, x2 = 0.8991 | 617.37
352.75 K, 2000 kPa, x2 = 0.8991 | 618.91
352.75 K, 3000 kPa, x2 = 0.8991 | 620.43
352.75 K, 4000 kPa, x2 = 0.8991 | 621.91
352.75 K, 5000 kPa, x2 = 0.8991 | 623.4
352.75 K, 6000 kPa, x2 = 0.8991 | 624.85
352.75 K, 7000 kPa, x2 = 0.8991 | 626.29
352.75 K, 8000 kPa, x2 = 0.8991 | 627.7
352.75 K, 9000 kPa, x2 = 0.8991 | 629.09
352.75 K, 10000 kPa, x2 = 0.8991 | 630.46
352.75 K, 11000 kPa, x2 = 0.8991 | 631.8
352.75 K, 12000 kPa, x2 = 0.8991 | 633.12
352.75 K, 13000 kPa, x2 = 0.8991 | 634.41
352.75 K, 14000 kPa, x2 = 0.8991 | 635.69
352.75 K, 15000 kPa, x2 = 0.8991 | 636.93
352.75 K, 16000 kPa, x2 = 0.8991 | 638.16
352.75 K, 17000 kPa, x2 = 0.8991 | 639.35
352.75 K, 18000 kPa, x2 = 0.8991 | 640.52
352.75 K, 19000 kPa, x2 = 0.8991 | 641.66
352.75 K, 20000 kPa, x2 = 0.8991 | 642.78
352.75 K, 21000 kPa, x2 = 0.8991 | 643.87
352.75 K, 22000 kPa, x2 = 0.8991 | 644.93
352.75 K, 23000 kPa, x2 = 0.8991 | 645.98
352.75 K, 24000 kPa, x2 = 0.8991 | 646.99
352.75 K, 25000 kPa, x2 = 0.8991 | 647.98
352.99 K, 1000 kPa, x2 = 0.0456 | 682.21
352.99 K, 1000 kPa, x2 = 0.7524 | 632.44
352.99 K, 2000 kPa, x2 = 0.0456 | 683.34
352.99 K, 2000 kPa, x2 = 0.7524 | 633.97
352.99 K, 3000 kPa, x2 = 0.0456 | 684.46
352.99 K, 3000 kPa, x2 = 0.7524 | 635.47
352.99 K, 4000 kPa, x2 = 0.0456 | 685.57
352.99 K, 4000 kPa, x2 = 0.7524 | 636.89
352.99 K, 5000 kPa, x2 = 0.0456 | 686.64
352.99 K, 5000 kPa, x2 = 0.7524 | 638.37
352.99 K, 6000 kPa, x2 = 0.0456 | 687.71
352.99 K, 6000 kPa, x2 = 0.7524 | 639.77
352.99 K, 7000 kPa, x2 = 0.0456 | 688.77
352.99 K, 7000 kPa, x2 = 0.7524 | 641.14
352.99 K, 8000 kPa, x2 = 0.0456 | 689.81
352.99 K, 8000 kPa, x2 = 0.7524 | 642.48
352.99 K, 9000 kPa, x2 = 0.0456 | 690.83
352.99 K, 9000 kPa, x2 = 0.7524 | 643.77
352.99 K, 10000 kPa, x2 = 0.0456 | 691.84
352.99 K, 10000 kPa, x2 = 0.7524 | 645.03
352.99 K, 11000 kPa, x2 = 0.0456 | 692.84
352.99 K, 11000 kPa, x2 = 0.7524 | 646.28
352.99 K, 12000 kPa, x2 = 0.0456 | 693.82
352.99 K, 12000 kPa, x2 = 0.7524 | 647.51
352.99 K, 13000 kPa, x2 = 0.0456 | 694.79
352.99 K, 13000 kPa, x2 = 0.7524 | 648.71
352.99 K, 14000 kPa, x2 = 0.0456 | 695.75
352.99 K, 14000 kPa, x2 = 0.7524 | 649.88
352.99 K, 15000 kPa, x2 = 0.0456 | 696.69
352.99 K, 15000 kPa, x2 = 0.7524 | 651.03
352.99 K, 16000 kPa, x2 = 0.0456 | 697.62
352.99 K, 16000 kPa, x2 = 0.7524 | 652.16
352.99 K, 17000 kPa, x2 = 0.0456 | 698.54
352.99 K, 17000 kPa, x2 = 0.7524 | 653.28
352.99 K, 18000 kPa, x2 = 0.0456 | 699.44
352.99 K, 18000 kPa, x2 = 0.7524 | 654.35
352.99 K, 19000 kPa, x2 = 0.0456 | 700.33
